This note sets out measurements from ChEMBL document CHEMBL1201862, “PubChem BioAssay data set” (2004).

The source made the active and inactive calls.

In general, AC50 refers to the concentration at which the activity in the assay is half-maximal. By IC50 is commonly meant the point on the concentration scale where inhibition reaches its midpoint. Usually EC50 stands for the midpoint of the concentration-response curve. What is called CC50 is the concentration that lowers cell viability or growth by half.

For assay [1], the target named is Dual specificity tyrosine-phosphorylation-regulated kinase 1A (Rattus norvegicus, UniProt Q63470). It counts as biochemical, Homo sapiens.
The target of assay [2] is 26S proteasome non-ATPase regulatory subunit 14 (Homo sapiens, UniProt O00487). In words: inhibition of proteasome subunit RPN11 – biochemical, fluorescence polarization, uHTS hits, confirmation (AID 602368). It counts as functional. A general note: Polarisation of emitted light reports the rotation of a fluorescent probe.
26S proteasome non-ATPase regulatory subunit 14, sequence (O00487 whole entry): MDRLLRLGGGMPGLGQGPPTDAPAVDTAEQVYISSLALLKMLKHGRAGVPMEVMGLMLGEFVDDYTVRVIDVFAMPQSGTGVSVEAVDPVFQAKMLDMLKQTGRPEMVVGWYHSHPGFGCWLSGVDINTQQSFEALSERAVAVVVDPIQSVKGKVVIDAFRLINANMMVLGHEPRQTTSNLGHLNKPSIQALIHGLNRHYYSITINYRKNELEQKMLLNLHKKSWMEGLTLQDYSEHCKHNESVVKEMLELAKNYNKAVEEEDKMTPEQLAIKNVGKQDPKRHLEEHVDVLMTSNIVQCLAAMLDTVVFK
Assay [3] deals with 72 kDa type IV collagenase (Homo sapiens, UniProt P08253). Description: Dose Response validation of uHTS RPN11 inhibitor hits using a MMP-2 Fluorescence assay. The assay is classed as functional.
72 kDa type IV collagenase, sequence (P08253 whole entry): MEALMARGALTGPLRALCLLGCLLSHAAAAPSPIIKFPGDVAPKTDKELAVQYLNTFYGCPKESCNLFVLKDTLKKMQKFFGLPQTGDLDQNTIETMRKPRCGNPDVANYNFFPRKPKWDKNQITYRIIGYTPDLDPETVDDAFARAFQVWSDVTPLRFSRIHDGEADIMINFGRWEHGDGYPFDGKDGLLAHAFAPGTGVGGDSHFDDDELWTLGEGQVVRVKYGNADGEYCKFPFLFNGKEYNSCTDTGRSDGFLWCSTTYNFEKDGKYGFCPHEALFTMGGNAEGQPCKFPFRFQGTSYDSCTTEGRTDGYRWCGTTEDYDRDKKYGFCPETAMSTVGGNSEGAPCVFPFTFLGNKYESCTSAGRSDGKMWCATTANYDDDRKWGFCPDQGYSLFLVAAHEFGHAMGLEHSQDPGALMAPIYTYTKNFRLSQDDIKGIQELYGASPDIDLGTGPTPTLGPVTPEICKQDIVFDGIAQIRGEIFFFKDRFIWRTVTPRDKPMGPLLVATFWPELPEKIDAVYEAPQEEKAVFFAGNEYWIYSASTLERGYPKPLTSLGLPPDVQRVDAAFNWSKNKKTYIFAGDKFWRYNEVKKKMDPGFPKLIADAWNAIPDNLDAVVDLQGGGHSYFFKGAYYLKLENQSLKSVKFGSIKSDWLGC
For another assay, the target named is Prothrombin (Bos taurus, UniProt P00735). Description: thrombin inhibition, dose response, biochemical, fluorescence polarization, uHTS hits (AID 602369). The assay is classed as functional.
Assay [4] in a line: growth suppression of PTEN-null colon cells, dose response, cell-based, HCT116 PTEN knockout (AID 1047).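 Note: HCT116 colon tumor cells with PTEN knocked out; cells exposed to compound for 60 hours before readout; potency for loss of cell viability measured by luminescence.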 It counts as functional.
Assay [5] can be described thus: growth suppression of beta-catenin-knockout colon cells, dose response, cell-based, HCT116, human colon tumor (AID 1045).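 Note: HCT116 colon tumor cells with beta catenin knocked out; cells exposed to compound for 60 hours.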 It counts as functional.
The test system of a further assay is Vero. Description: cells. It counts as functional. The conditions noted are these: Chlorocebus sabaeus.
In another assay the target is T1, Caspase-3 (Homo sapiens, UniProt P42574).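 Note: Dose-response selectivity test against caspase-3 for candidate inhibitors of sentrin-specific proteases (SENPs).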
T1 sequence (P42574 whole entry): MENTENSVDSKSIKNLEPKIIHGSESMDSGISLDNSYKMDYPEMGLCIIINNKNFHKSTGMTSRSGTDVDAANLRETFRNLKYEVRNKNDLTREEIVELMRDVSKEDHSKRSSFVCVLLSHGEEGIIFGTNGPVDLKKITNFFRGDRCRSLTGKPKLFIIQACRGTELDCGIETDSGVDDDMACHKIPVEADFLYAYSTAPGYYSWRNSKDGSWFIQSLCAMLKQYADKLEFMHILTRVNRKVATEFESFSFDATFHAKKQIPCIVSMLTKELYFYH
It counts as functional.

The target of assay [6] is T2, Sentrin-specific protease 7 (Homo sapiens, UniProt Q9BQF6).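 Note: Luminescence-based dose-response confirmation of ultra-high-throughput screening hits, measuring inhibition of SENP7.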
T2 sequence (Q9BQF6 whole entry): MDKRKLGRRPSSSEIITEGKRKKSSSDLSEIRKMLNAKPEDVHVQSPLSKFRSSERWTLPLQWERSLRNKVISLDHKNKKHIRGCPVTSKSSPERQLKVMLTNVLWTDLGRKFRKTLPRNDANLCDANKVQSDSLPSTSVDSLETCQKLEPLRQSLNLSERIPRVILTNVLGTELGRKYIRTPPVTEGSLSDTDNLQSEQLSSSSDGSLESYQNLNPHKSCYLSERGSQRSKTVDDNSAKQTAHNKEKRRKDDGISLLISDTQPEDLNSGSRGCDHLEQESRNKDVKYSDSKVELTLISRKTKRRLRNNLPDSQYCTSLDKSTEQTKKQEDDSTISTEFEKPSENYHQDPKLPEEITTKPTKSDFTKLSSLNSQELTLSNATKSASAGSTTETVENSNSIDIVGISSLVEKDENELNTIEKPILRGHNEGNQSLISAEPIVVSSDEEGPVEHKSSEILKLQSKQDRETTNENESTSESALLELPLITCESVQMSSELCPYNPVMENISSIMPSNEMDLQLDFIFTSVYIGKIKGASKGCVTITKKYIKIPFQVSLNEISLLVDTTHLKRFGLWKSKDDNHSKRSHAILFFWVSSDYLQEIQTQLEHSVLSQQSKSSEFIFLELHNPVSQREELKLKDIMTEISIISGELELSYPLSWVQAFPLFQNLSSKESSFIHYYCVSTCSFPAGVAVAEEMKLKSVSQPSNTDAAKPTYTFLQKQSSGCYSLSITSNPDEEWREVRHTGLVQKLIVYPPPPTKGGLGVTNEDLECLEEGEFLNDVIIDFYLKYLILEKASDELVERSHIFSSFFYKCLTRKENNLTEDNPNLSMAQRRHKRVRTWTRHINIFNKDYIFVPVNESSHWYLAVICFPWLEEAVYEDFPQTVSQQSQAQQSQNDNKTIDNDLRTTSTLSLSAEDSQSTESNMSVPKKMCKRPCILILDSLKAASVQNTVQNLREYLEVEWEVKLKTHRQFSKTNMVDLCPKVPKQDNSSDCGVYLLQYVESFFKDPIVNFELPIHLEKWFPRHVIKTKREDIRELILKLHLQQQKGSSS
It counts as functional.

For assay [7], the target named is T3, Sentrin-specific protease 6 (Homo sapiens, UniProt Q9GZR1).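 Note: Luminescence-based dose-response confirmatory assay of SENP6 inhibition, following up an ultra-high-throughput screen.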
T3 sequence (Q9GZR1 whole entry): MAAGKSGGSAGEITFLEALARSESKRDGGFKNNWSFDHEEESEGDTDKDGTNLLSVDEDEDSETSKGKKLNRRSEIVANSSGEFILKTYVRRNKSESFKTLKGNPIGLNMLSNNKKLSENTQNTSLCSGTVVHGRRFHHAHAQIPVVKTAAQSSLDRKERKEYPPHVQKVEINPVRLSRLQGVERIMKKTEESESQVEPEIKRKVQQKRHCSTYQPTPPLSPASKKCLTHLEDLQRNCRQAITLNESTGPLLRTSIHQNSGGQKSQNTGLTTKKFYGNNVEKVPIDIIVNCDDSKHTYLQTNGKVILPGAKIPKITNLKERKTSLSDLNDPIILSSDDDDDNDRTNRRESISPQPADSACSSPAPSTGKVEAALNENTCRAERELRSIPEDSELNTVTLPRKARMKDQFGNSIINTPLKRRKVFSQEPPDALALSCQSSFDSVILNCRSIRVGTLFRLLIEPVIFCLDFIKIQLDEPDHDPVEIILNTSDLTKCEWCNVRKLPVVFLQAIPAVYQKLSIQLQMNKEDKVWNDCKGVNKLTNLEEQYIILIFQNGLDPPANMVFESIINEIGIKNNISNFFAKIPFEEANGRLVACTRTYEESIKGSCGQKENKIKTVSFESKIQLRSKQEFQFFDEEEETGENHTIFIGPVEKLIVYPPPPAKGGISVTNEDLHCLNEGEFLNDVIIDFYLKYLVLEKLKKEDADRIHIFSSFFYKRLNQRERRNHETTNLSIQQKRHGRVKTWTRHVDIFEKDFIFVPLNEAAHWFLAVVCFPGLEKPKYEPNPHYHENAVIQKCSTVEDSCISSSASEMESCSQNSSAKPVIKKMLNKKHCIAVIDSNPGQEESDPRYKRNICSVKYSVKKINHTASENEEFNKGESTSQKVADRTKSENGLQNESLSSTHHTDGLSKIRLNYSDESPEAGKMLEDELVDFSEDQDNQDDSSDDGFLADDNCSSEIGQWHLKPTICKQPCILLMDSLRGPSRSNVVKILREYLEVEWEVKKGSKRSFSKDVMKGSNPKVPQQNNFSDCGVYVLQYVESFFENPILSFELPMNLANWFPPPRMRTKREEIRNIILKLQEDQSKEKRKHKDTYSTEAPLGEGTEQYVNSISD
The assay is classed as functional.

The target of assay [8] is T4, Sentrin-specific protease 8 (Homo sapiens, UniProt Q96LD8).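 Note: luminescence read-out of SENP8 inhibition, dose-response confirmation following an ultra-high-throughput screen.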
T4 sequence (Q96LD8 whole entry): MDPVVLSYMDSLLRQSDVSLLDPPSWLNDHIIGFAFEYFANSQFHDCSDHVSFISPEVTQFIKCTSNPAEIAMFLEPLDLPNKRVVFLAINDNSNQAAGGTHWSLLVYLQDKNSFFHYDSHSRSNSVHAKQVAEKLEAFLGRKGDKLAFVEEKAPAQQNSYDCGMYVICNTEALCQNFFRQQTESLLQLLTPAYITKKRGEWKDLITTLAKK
The assay is classed as functional.

The target of a further assay is T5, Cysteine protease ATG4B (Homo sapiens, UniProt Q9Y4P1).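 Note: Fluorescence-based dose-response confirmation assay measuring inhibition of ATG4B activity.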
T5 sequence (Q9Y4P1 whole entry): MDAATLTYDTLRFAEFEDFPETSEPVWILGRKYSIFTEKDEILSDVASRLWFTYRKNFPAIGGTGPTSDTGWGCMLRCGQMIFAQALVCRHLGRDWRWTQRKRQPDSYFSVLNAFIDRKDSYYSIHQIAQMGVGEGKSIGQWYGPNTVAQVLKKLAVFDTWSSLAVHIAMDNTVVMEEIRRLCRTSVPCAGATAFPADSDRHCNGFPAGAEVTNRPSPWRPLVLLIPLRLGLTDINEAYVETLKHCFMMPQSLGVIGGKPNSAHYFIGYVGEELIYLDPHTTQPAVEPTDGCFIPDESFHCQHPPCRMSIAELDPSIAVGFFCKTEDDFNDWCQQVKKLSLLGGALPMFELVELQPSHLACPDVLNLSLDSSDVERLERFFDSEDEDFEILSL
The assay is classed as functional.

Another assay concerns the target Phospholipase A2 (Homo sapiens, UniProt P04054). It counts as functional.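 Note: confirmatory dose-response counterscreen on phospholipase A2, testing hits that came from an ultra-high-throughput screen for ATG4B inhibitors.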
Assay [9] has as its target T6, DNA repair and recombination protein RAD54-like (Homo sapiens, UniProt Q92698).
T6 sequence (Q92698 whole entry): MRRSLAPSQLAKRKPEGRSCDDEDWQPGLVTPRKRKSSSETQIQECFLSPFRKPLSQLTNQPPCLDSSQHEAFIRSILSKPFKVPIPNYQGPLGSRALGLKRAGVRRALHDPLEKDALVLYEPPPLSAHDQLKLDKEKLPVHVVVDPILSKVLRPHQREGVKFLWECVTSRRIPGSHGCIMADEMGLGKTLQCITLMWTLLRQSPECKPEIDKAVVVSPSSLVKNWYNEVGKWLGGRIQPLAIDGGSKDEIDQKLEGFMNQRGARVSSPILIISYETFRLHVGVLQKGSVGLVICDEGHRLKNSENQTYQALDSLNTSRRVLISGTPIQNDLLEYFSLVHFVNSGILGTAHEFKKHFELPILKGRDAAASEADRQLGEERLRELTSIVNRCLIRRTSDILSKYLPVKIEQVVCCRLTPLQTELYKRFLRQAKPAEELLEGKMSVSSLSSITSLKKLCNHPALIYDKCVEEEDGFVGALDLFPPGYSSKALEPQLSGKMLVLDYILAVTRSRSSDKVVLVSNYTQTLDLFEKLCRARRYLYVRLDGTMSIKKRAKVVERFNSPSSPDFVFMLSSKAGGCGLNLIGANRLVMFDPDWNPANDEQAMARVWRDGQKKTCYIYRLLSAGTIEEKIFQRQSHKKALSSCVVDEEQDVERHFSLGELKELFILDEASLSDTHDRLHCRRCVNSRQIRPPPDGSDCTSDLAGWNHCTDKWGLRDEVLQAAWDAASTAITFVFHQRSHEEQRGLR
In words: inhibitors of human RAD54 branch migration, confirmation, biochemical, fluorescence, cherry-picked samples, dose series (AID 651657). It counts as functional.

The nature of assay [10]: inhibitors of intracellular T. cruzi replication, confirmation, NIH3T3 host cells, beta-gal luminescence (AID 2044).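 Note: intracellular parasites grown in NIH/3T3 mouse fibroblasts as host cells; luminescent beta-galactosidase reporter signal from transgenic T. cruzi replicating inside host cells; inhibitors lower the luminescence signal.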 The assay is classed as functional, cell-based.
Assay [11] is described as follows: cytotoxicity toward NIH3T3 fibroblasts, dose response, counter-screen, cell-based, ATP luminescence, mouse fibroblasts (AID 2010).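 Note: cells exposed to compound for about 90 hours before reading.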 It counts as functional. (A counterscreen serves to expose hits that act by an unwanted route or on another target.)

Phospholipase A2, sequence (P04054 whole entry): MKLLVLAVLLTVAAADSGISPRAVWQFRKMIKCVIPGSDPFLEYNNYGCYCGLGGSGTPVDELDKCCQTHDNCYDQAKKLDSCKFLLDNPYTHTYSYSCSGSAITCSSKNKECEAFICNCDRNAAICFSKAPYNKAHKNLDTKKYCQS

As to `Cc1occc1C(=O)/C(C#N)=C/c1ccc(O)c(Br)c1`, in assay [1], the AC50 was 7.25 µM (active). Further, the half-inhibitory concentration (IC50) is 9.83 µM (active) in assay [2], > 100 µM (inactive) in assay [3] and 12.1 µM (active) at Prothrombin.

On to `CCN1CCc2c(C#N)c(N3CCCCC3)nc(NCc3ccccc3)c2C1`, for which the EC50 was 20.1 µM (active) in assay [4] and 17.9 µM (active) in assay [5]. In addition, the CC50 in the assay with Vero was > 25 µM (active).

For `COc1c(O)ccc(/C=C(\C#N)c2nc3ccccc3[nH]2)c1[N+](=O)[O-]`, the IC50 on Caspase-3 was 31.1 µM (active); in assay [6], 15.1 µM (active); in assay [7] it was 25.9 µM (active); in assay [8] it was 35.9 µM (active). Moreover, the AC50 in [1] is 2.77 µM (active).

On to `Cc1ccc2nc3c(c(Nc4ccc5c(c4)OCCO5)c2c1)CCC3`, for which the IC50 was 10.7 µM (active) at Cysteine protease ATG4B and 7.53 µM (active) at Phospholipase A2. For the same molecule, the AC50 in assay [9] was 54.9 µM (active).

On to `Cc1ccc(Sc2nnc(Cc3ccccc3)c3ccccc23)cc1`, for which the figures for the EC50 in assay [10] and in [11] were 1.95 µM (active) and > 60 µM (not active), respectively. In addition, the CC50 in the assay with Vero was > 25 µM (active).
